The values below come from US10669284B2, “Fused thiazolopyrimidine derivatives as MNKS inhibitors” (LIFEARC, priority 2015, dated 2020).

Experiment [1] relates to phosphorylation of eIF4E at ser209 in MV4.11 cell line. The experiment in a line: MNK cellular activity phospho-eIF4E detection assay (Alphascreen Surefire). The experiment is classed as cell-based. The conditions noted are these: Homo sapiens; MV4.11 cell line, phospho-eIF4E (ser209) Alphascreen Surefire; read-out: P(IC50) elF4E (converted). How it is done: The assay detection is based on the formation of sandwich antibody complexes coupled to donor and acceptor beads. Excitation at 680 nm causes the transfer of a singlet oxygen species between donor and acceptor beads when they are in close proximity by binding to the analyte ([…]), which results in the emission of light at 520-620 nm.
Cells were then lysed and the Alphascreen Surefire protocol followed according to manufacturer's recommendations. 8 ul Acceptor beads (1:50 dilution in kit activation buffer) was added to lysate, shaken 150 rpm for 2 min and incubated for 1.5 hr at room temperature. 3 ul Donor beads (1:20 dilution in kit dilution buffer) were then added, shaken 150 rpm for 2 min and incubated for a further 1.5 hr at room temperature after which the plates were read on Pherastar FS using Alphascreen optic module.
Data were normalised relative to untreated DMSO only controls and curves repeated in duplicate within experiments. Data reported are averages of at least 2 independent experiments.
(In general: Bead proximity is the source of the signal in Alpha formats.)

A further experiment addresses T1, Full-length human MNK2 (Homo sapiens, UniProt Q9HBH9, T379D).
T1 construct: GST (N); purchased Carna Biosciences 02-146; host or cells: baculovirus expression system
The experiment in a line: MNK2 biochemical IC50 assay (Caliper Mobility Shift Assay). The conditions noted are these: read-out: P(IC50) MNK2 (converted). From the text: (§1) The phosphorylated peptide product and unphosphorylated peptide substrate were detected using a Caliper Mobility Shift Assay using the Caliper LabChip EZ Reader II.
(§2) The Caliper Mobility Shift Assay technology is based on the utilisation of a microfluidic chip to measure the conversion of a fluorescent non-phosphorylated peptide substrate to phosphorylated product by electrophoresis separation of substrate and product and detection via Laser-induced fluorescence. The LabChip EZ Reader software calculates the relative heights of substrate and product peaks and reports the peak ratio (Product peak(P) divided by the sum of Product peak(P) and Substrate peak(S)). The percent-conversion is calculated as 100×[(P/(P+S)]. All assays were set up to run in the linear phase with a maximum of 10 percent substrate conversion.
(§3) These were N-terminal GST fusion proteins expressed in baculovirus expression system and purified by glutathione sepharose affinity chromatography. […] All other assay reagents were sourced from Sigma.
(§4) The assay incubation times were adjusted depending on the concentration of ATP used. Assays were performed at low (50 uM) and high (1 mM) ATP. The low ATP values were selected to run at Km conditions for the standard assay to allow relative potencies to be compared across other kinases. The high ATP concentration was selected as representative of cellular ATP concentrations, and for an indication of ATP competition, where a significant shift (greater than half log) in apparent potency would be expected compared to Km conditions. All IC50 values reported are the average of at least two independent experiments.
Reactions were performed as above using 10 nM MNK2 in the assay. Standard assays contained 50 uM ATP and high concentration ATP assays contained 1 mM ATP. […] All other conditions were the same.

Another experiment has as its target T2, Full-length human MNK1 (Homo sapiens, UniProt Q9BUB5, T385D).
T2 construct: GST (N); purchased Carna Biosciences 02-145; host or cells: baculovirus expression system
The experiment in a line: MNK1 biochemical IC50 assay (Caliper Mobility Shift Assay). Conditions: read-out: P(IC50) MNK1 (converted).
Description: as §1, §2, §3
Compounds were serially diluted in DMSO to generate a 10-point half log dilution curve with a final top concentration of 100 uM in the assay. […] Compounds were pre-incubated with enzyme and peptide in reaction buffer for 30 mins prior to addition of ATP to initiate the reaction. Final assay concentrations were 3 nM MNK1, 2 uM peptide substrate, 50 uM ATP, 50 mM Hepes pH 7.0, 0.01% BSA, 10 mM MgCl2, 1 mM dithiothrietol.
as §4

T1 sequence (Q9HBH9 whole entry T379D): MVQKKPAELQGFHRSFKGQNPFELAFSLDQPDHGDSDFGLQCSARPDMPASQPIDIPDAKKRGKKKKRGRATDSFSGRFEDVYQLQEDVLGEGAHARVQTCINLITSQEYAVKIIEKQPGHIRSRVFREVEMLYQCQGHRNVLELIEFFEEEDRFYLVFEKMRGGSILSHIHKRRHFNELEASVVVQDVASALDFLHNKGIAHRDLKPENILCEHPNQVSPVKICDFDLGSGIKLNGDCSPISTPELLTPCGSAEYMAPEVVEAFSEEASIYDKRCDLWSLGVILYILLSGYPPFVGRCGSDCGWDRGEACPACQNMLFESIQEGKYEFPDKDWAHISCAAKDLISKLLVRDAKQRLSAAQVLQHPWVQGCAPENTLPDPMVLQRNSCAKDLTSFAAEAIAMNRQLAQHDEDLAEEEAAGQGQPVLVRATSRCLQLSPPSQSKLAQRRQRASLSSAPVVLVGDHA
T2 sequence (Q9BUB5 1-424 isoform Q9BUB5-2 T344D): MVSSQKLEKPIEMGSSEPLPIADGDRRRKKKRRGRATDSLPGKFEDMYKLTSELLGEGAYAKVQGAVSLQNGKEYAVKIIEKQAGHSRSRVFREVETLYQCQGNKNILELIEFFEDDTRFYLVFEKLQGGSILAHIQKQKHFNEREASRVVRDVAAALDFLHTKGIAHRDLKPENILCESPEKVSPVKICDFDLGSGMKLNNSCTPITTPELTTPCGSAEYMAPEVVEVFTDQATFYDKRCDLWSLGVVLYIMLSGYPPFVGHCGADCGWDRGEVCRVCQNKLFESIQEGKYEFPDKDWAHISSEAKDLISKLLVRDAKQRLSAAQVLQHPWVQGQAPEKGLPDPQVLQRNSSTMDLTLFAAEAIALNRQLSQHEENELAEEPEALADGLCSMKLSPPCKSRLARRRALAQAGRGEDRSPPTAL

In general, IC50 refers to the concentration that inhibits the measured activity by half. Take `CN(C)CCC1CN(c2ncnc3sc(C(=O)NC4CCOCC4)nc23)c2ccc(F)cc21` (stereo not drawn) [Example 148, 7-[3-[2-(dimethyl-amino)ethyl]-5-fluoro-indolin-1-yl]-N-tetrahydro-pyran-4-yl-thiazolo[5,4-d]pyrimidine-2-carboxamide]: the IC50 was 63.1 nM in experiment [1], 63.1 nM on Full-length human MNK2 and 50.1 nM at Full-length human MNK1.
Turning to `CN1CCN(c2ncnc3sc(C(=O)NCC4CCNCC4)nc23)c2ccc(F)cc21` [Example 57, 7-(6-fluoro-4-methyl-2,3-dihydroquinoxalin-1-yl)-N-(4-piperidylmethyl)thiazolo[5,4-d]pyrimidine-2-carboxamide], the IC50 (in experiment [1]; on Full-length human MNK2; on Full-length human MNK1) was 251 nM throughout.
For the molecule `O=C(NC1CCOCC1)c1nc2c(N3CCc4ccccc43)ncnc2s1` [Example 106, 7-Indolin-1-yl-N-tetrahydropyran-4-yl-thiazolo[5,4-d]pyrimidine-2-carboxamide], the half-maximal inhibitory concentration (IC50) in experiment [1] was 20 nM; at Full-length human MNK2, 7.94 nM; on Full-length human MNK1 it was 12.6 nM.
On to `CC1Cc2ccccc2N1c1ncnc2sc(C(=O)NC3CCN(C)CC3)nc12` (stereo not drawn) [Example 123, 7-(2-Methylindolin-1-yl)-N-(1-methyl-4-piperidyl)thiazolo[5,4-d]pyrimidine-2-carboxamide], for which the figures for the IC50 (in experiment [1]; on Full-length human MNK2; at Full-length human MNK1) were 20 nM, 15.8 nM and 25.1 nM, respectively.
Take `CC(C)Oc1cc(F)ccc1Nc1ncnc2sc(C(=O)NCCCO)nc12` [Example 8, 7-(4-fluoro-2-isopropoxy-anilino)-N-(3-hydroxypropyl)thiazolo[5,4-d]pyrimidine-2-carboxamide]: the IC50 in experiment [1] was 63.1 nM; on Full-length human MNK2, 50.1 nM; at Full-length human MNK1, 50.1 nM.
Consider `CN(C)CCCNC(=O)c1nc2c(Nc3cccc4c3OCC4)ncnc2s1` [Example 26, 7-(2,3-Dihydrobenzofuran-7-ylamino)-N-[3-(dimethylamino)propyl]thiazolo[5,4-d]pyrimidine-2-carboxamide], for which the values for the IC50 (in experiment [1]; at Full-length human MNK2; on Full-length human MNK1) were 1000 nM, 1580 nM and 1580 nM, respectively.
`CC(C)Oc1cc(F)ccc1Nc1ncnc2sc(C(=O)NC3CNC3)nc12` [Example 28, N-(azetidin-3-yl)-7-{[4-fluoro-2-(propan-2-yloxy)phenyl]amino}[1,3]thiazolo[5,4-d]pyrimidine-2-carboxamide]: the results for the concentration for half-maximal inhibition (IC50) (in experiment [1]; on Full-length human MNK2; at Full-length human MNK1) were 79.4 nM, 79.4 nM and 126 nM, respectively.
Regarding `O=C(NC1CCOCC1)c1nc2c(-n3ccc4ccccc43)ncnc2s1` [Example 117, 7-Indol-1-yl-N-tetrahydropyran-4-yl-thiazolo[5,4-d]pyrimidine-2-carboxamide], the IC50 in experiment [1] was 50.1 nM; at Full-length human MNK2, 31.6 nM; at Full-length human MNK1, 50.1 nM.
On to `C[C@@H]1Cc2ccccc2N1c1ncnc2sc(C(=O)NCC3CCNCC3)nc12` [Example 127, (R)-7-(2-Methylindolin-1-yl)-N-(piperidin-4-ylmethyl)thiazolo[5,4-d]pyrimidine-2-carboxamide], for which the IC50 was 15.8 nM in experiment [1], 15.8 nM on Full-length human MNK2 and 12.6 nM at Full-length human MNK1.
Regarding `CNC(=O)c1nc2c(N3CC(C)c4ccccc43)ncnc2s1` (stereo not drawn) [Example 156, N-methyl-7-(3-methylindolin-1-yl)thiazolo[5,4-d]pyrimidine-2-carboxamide], the IC50 in experiment [1] is 5.01 nM; on Full-length human MNK2 it was 7.94 nM; on Full-length human MNK1, 10 nM.
With `O=C(NCC1CCNCC1)c1nc2c(N3c4ccccc4C[C@@H]3CO)ncnc2s1` [Example 138], the IC50 in experiment [1] was 200 nM; on Full-length human MNK2, 316 nM; on Full-length human MNK1 it was 398 nM.
Regarding `O=C(NCCCn1cccn1)c1nc2c(N3CCc4cc(F)ccc43)ncnc2s1` [Example 75, 7-(5-fluoroindolin-1-yl)-N-(3-pyrazol-1-ylpropyl)thiazolo[5,4-d]pyrimidine-2-carboxamide], the IC50 is 15.8 nM in experiment [1], 3.16 nM at Full-length human MNK2 and 3.16 nM at Full-length human MNK1.
On to `O=C(NCC1CCNCC1)c1nc2c(N3c4ccccc4C[C@H]3CO)ncnc2s1` [Example 137], for which the half-inhibitory concentration (IC50) in experiment [1] was 158 nM; at Full-length human MNK2, 126 nM; at Full-length human MNK1 it was 200 nM.
As to `O=C(NCC1CCNCC1)c1nc2c(Nc3ccc(F)cc3O[C@H]3CCOC3)ncnc2s1` [Example 54, 7-[4-fluoro-2-[(3S)-tetrahydrofuran-3-yl]oxy-anilino]-N-(4-piperidylmethyl)thiazolo[5,4-d]pyrimidine-2-carboxamide], the half-maximal inhibitory concentration (IC50) in experiment [1] is 200 nM; on Full-length human MNK2, 100 nM; on Full-length human MNK1 it was 79.4 nM.
For `CC(C)Oc1cc(F)ccc1Nc1ncnc2scnc12` [Example 47, N-[4-fluoro-2-(propan-2-yloxy)phenyl][1,3]thiazolo[5,4-d]pyrimidin-7-amine], the IC50 in experiment [1] is 126 nM; at Full-length human MNK2, 200 nM; at Full-length human MNK1, 251 nM.
`O=C(NCC1CCNCC1)c1nc2c(N3CCc4ccccc43)ncnc2s1` [Example 94, 7-Indolin-1-yl-N-(4-piperidylmethyl)thiazolo[5,4-d]pyrimidine-2-carboxamide]: the IC50 in experiment [1] is 7.94 nM; at Full-length human MNK2, 3.98 nM; at Full-length human MNK1, 6.31 nM.
For the molecule `CC1Cc2ccccc2N1c1ncnc2sc(C(=O)NCC3CCNCC3)nc12` (stereo in doubt) [Example 134, 7-[(2R)-2-methylindolin-1-yl]-N-(4-piperidyl-methyl)thiazolo[5,4-d]pyrimidine-2-carboxamide], the figures for the IC50 (in experiment [1]; on Full-length human MNK2; on Full-length human MNK1) were 39.8 nM, 25.1 nM and 31.6 nM, respectively.
Regarding `O=C(NCC1CCNCC1)c1nc2c(Nc3ccccc3-c3ccco3)ncnc2s1` [Example 62, 7-[2-(2-furyl)anilino]-N-(4-piperidylmethyl)thiazolo[5,4-d]pyrimidine-2-carboxamide], the half-maximal inhibitory concentration (IC50) in experiment [1] is 316 nM; at Full-length human MNK2, 316 nM; on Full-length human MNK1, 631 nM.
Consider `CNCCNC(=O)c1nc2c(Nc3ccc(F)cc3OC(C)C)ncnc2s1` [Example 30, 7-{[4-Fluoro-2-(propan-2-yloxy)phenyl]amino}-N-[2-(methylamino)ethyl][1,3]thiazolo[5,4-d]pyrimidine-2-carboxamide], for which the IC50 is 100 nM in experiment [1], 126 nM at Full-length human MNK2 and 200 nM on Full-length human MNK1.
For the molecule `CC(C)(O)CC1CN(c2ncnc3sc(C(=O)NCC4CCNCC4)nc23)c2ccccc21` (stereo not drawn) [Example 142], the IC50 was 10 nM in experiment [1], 15.8 nM on Full-length human MNK2 and 15.8 nM on Full-length human MNK1.
`CC(C)Oc1cc(F)ccc1Nc1ncnc2sc(C(=O)NCC3CNCCO3)nc12` (stereo not drawn) [Example 4, 7-(4-fluoro-2-isopropoxy-anilino)-N-(morpholin-2-ylmethyl)thiazolo[5,4-d]pyrimidine-2-carboxamide]: the IC50 is 100 nM in experiment [1], 39.8 nM at Full-length human MNK2 and 50.1 nM at Full-length human MNK1.
As for `CN1CCC(CNC(=O)c2nc3c(N4CCc5cccc(F)c54)ncnc3s2)CC1` [Example 93, 7-(7-fluoroindolin-1-yl)-N-[(1-methyl-4-piperidyl)methyl]thiazolo [5,4-d]pyrimidine-2-carboxamide], the IC50 is 251 nM in experiment [1], 158 nM at Full-length human MNK2 and 200 nM at Full-length human MNK1.
For `CN1CCC(NC(=O)c2nc3c(N4CCc5cc([N+](=O)[O-])ccc54)ncnc3s2)CC1` [Example 45, N-(1-methylpiperidin-4-yl)-7-(5-nitro-2,3-dihydro-1H-indol-1-yl)[1,3]thiazolo[5,4-d]pyrimidine-2-carboxamide], in that order: 31.6 nM, 20 nM and 15.8 nM.
